Results published in ChEMBL document CHEMBL3872210, “Synthesis and antiproliferative mechanism of action of pyrrolo[3',2':6,7] cyclohepta[1,2-d]pyrimidin-2-amines as singlet oxygen photosensitizers” (Eur J Med Chem, 2016).
Activity calls are given as the source filed them. The rule behind the calls is not given here.

Assays:
[1] = Photocytotoxicity against human MCF7 cells assessed as increase in production of radical oxygen species at 400 nM pretreated for 30 mins followed by 1.5 J/cm2 UV-light irradiation for 5 mins measured after 6 hrs by H2DCFDA dye based fluorescence assay relative to control; format: functional
MCF7 [2] = assay: Induction of mitochondrial fusion in human MCF7 cells at 400 nM irradiated with 1.5 J/cm2 UV-light measured after 6 hrs by Mitotracker orange CMTM-ROS/Nuclear green staining based confocal microscopic method; format: functional, cell-based
[3] = Photocytotoxicity against human MCF7 cells assessed as increase in production of radical oxygen species at 400 nM pretreated for 30 mins followed by 1.5 J/cm2 UV-light irradiation for 5 mins measured after 2 hrs by H2DCFDA dye based fluorescence assay relative to control; format: functional
MCF7 [4] = assay: Induction of lysosomal dysfunction in human MCF7 cells at 400 nM irradiated with 1.5 J/cm2 UV-light measured after 6 hrs by Lysotracker green DND staining based confocal microscopic method; format: functional, cell-based
MCF7 [5] = assay: Induction of lysosomal dysfunction in human MCF7 cells at 2 uM irradiated with 1.5 J/cm2 UV-light measured after 2 hrs by Lysotracker green DND staining based confocal microscopic method; format: functional, cell-based
MCF7 [6] = assay: Induction of lysosomal dysfunction in human MCF7 cells at 2 uM irradiated with 1.5 J/cm2 UV-light measured after 20 mins by Lysotracker green DND staining based confocal microscopic method; format: functional, cell-based
[7] = Selectivity index, ratio CC50 for cytotoxicity against human HT-29 cells to EC50 for photocytotoxicity against human HT-29 cells; format: toxicity, cell-based; conditions: read-out: Ratio CC50/EC50
[8] = Induction of apoptosis in human MCF7 cells assessed as early apoptotic cells at photocytotoxic EC50 irradiated with 1.5 J/cm2 UV-light measured after 6 hrs by 7-AAD/PE annexin V staining based FACS analysis (reference value: 17 %); format: functional
MCF7 [9] = assay: Induction of mitochondrial dysfunction in human MCF7 cells assessed as clustering and swelling in location at 2 uM irradiated with 1.5 J/cm2 UV-light measured after 20 to 120 mins by Mitotracker orange CMTM-ROS/Nuclear green staining based confocal microscopic method; format: functional, cell-based
[10] = Induction of singlet oxygen sensitization in aqueous acetonitrile solution irradiated with laser flash photolysis assessed as signal intensity absorbance at 630 nanometer by spectroscopic method; format: physicochemical; conditions: buffer
MCF7 [11] = assay: Dark toxicity against human MCF7 cells assessed as increase in production of radical oxygen species at 1 to 4 uM after 2 hrs by H2DCFDA dye based fluorescence assay; format: cell-based; conditions: mcf7, 2 h
MCF7 [12] = assay: Induction of lysosomal membrane impairment in human MCF7 cells assessed as increase in dye accumulation in cytoplasm at 2 uM irradiated with 1.5 J/cm2 UV-light measured after 20 mins by Lysotracker green DND staining based confocal microscopic method; format: functional, cell-based
[13] = Dark toxicity against human HeLa cells assessed as reduction in cell survival measured after 30 mins by MTT assay; format: cell-based
[14] = Induction of singlet oxygen sensitization in aqueous acetonitrile solution irradiated with laser flash photolysis assessed as signal intensity absorbance at 355 nanometer by spectroscopic method; format: physicochemical; conditions: buffer
[15] = Induction of singlet oxygen photogeneration in aqueous acetonitrile solution of ADPA assessed as photobleaching of anthracene absorption upon irradiation at 2.3 10^-5M at 315 nanometer after 1 hr by UV absorption method; format: physicochemical; conditions: buffer
[16] = Photocytotoxicity against human HeLa cells assessed as reduction in cell survival irradiated with 1.5 J/cm2 UV-light for 5 mins measured after 48 hrs by MTT assay; format: functional, cell-based; conditions: light or radiation study
[17] = Photocytotoxicity against human MCF7 cells assessed as reduction in cell survival irradiated with 1.5 J/cm2 UV-light for 5 mins measured after 48 hrs by MTT assay; format: functional, cell-based; conditions: MCF7, light or radiation study
[18] = Induction of apoptosis in human MCF7 cells assessed as necrotic cells at photocytotoxic EC50 irradiated with 1.5 J/cm2 UV-light measured after 6 hrs by 7-AAD/PE annexin V staining based FACS analysis; format: functional
[19] = Induction of apoptosis in human MCF7 cells assessed as late apoptotic cells at photocytotoxic EC50 irradiated with 1.5 J/cm2 UV-light measured after 6 hrs by 7-AAD/PE annexin V staining based FACS analysis; format: functional
[20] = Selectivity index, ratio of CC50 for cytotoxicity against human HeLa cells to EC50 for photocytotoxicity against human HeLa cells; format: toxicity, cell-based; conditions: read-out: Ratio CC50/EC50
[21] = Induction of lysosomal dysfunction in human MCF7 cells at 2 uM measured after 20 mins under dark condition by Lysotracker green DND staining based confocal microscopic method; format: cell-based; conditions: mcf7, 20 min
[22] = Photocytotoxicity against human MCF7 cells assessed as increase in production of radical oxygen species at 4 uM pretreated for 30 mins followed by 1.5 J/cm2 UV-light irradiation for 5 mins measured after 2 hrs by H2DCFDA dye based fluorescence assay relative to control; format: functional
[23] = Dark toxicity against human MCF7 cells assessed as reduction in cell survival measured after 30 mins by MTT assay; format: cell-based
[24] = Photocytotoxicity against human HT-29 cells assessed as reduction in cell survival irradiated with 1.5 J/cm2 UV-light for 5 mins measured after 48 hrs by MTT assay; format: functional, cell-based; conditions: HT-29, light or radiation study
[25] = Dark toxicity against human HT-29 cells assessed as reduction in cell survival measured after 30 mins by MTT assay; format: cell-based
MCF7 [26] = assay: Induction of mitochondrial dysfunction in human MCF7 cells assessed as accumulation of mitochondrial signal at perinuclear level at 2 uM irradiated with 1.5 J/cm2 UV-light measured after 20 to 120 mins by Mitotracker orange CMTM-ROS/Nuclear green staining based confocal microscopic method; format: functional, cell-based
[27] = Selectivity index, ratio CC50 for cytotoxicity against human MCF7 cells to EC50 for photocytotoxicity against human MCF7 cells; format: toxicity, cell-based; conditions: read-out: Ratio CC50/EC50
[28] = Induction of mitochondrial dysfunction in human MCF7 cells at 2 uM measured after 20 mins under dark condition by Mitotracker orange CMTM-ROS/Nuclear green staining based confocal microscopic method; format: cell-based; conditions: mcf7, 20 min
MCF7 [29] = assay: Dark toxicity against human MCF7 cells assessed as increase in production of radical oxygen species at 4 uM after 2 hrs by H2DCFDA dye based fluorescence assay; format: cell-based; conditions: mcf7, 2 h
[30] = Induction of singlet oxygen sensitization in aqueous acetonitrile solution irradiated with laser flash photolysis assessed as signal intensity absorbance at 610 nanometer by spectroscopic method; format: physicochemical; conditions: buffer

Row | SMILES | selectivity ratio [7] | CC50 at 0.5 h [13] [nM] | EC50 [16] [nM] | EC50 [17] [nM] | selectivity ratio [20] | CC50 at 0.5 h [23] [nM] | EC50 [24] [nM] | CC50 at 0.5 h [25] [nM] | selectivity ratio [27] | also measured
1 | CCCCCCCCCCCCCC(=O)O[C@@H]1[C@@H](C)[C@@]2(O)[C@@H](C=C(CO)C[C@]3(O)C(=O)C(C)=C[C@@H]23)[C@@H]2C(C)(C)[C@]12OC(C)=O [PHORBOL MYRISTATE ACETATE] |  |  |  |  |  |  |  |  |  | Activity [1]: 420%; Activity (MCF7 [2]): Active; Activity [3]: 120%; Activity (MCF7 [4]): Active
2 | CCOC(=O)c1cc2c(n1C)-c1nc(NC3CCCCC3)ncc1CCC2 | > 1110 | > 100000 | 80 | 80 | > 1270 | > 100000 | 90 | > 100000 | > 1250 | Activity (MCF7 [5]): Active; Activity (MCF7 [6]): Active; Activity [8]: 47%; Activity (MCF7 [9]): Active; Activity [10]: 0.052; Activity (MCF7 [11]): Non-Toxic; Activity (MCF7 [12]): Active; Activity [14]: 0.012; Activity [15]: Active; Activity [18]: 11%; Activity [19]: 13%; Activity [21]: Non-Toxic; Activity [22]: 222%; Activity (MCF7 [26]): Active; Activity [28]: Non-Toxic
3 | CCOC(=O)c1cc2c(n1Cc1ccccc1)-c1nc(NC3CCCCC3)ncc1CCC2 | > 1240 | > 100000 | 60 | 100 | > 1670 | > 100000 | 80 | > 100000 | > 1050 | Activity (MCF7 [11]): Non-Toxic; Activity [22]: 198%
4 | Cn1c(C(N)=O)cc2c1-c1nc(N)ncc1CCC2 |  | > 100000 | 8750 | 66000 | > 11 | > 100000 | > 100000 | > 100000 | > 1.5 | Activity [8]: 22%; Activity (MCF7 [29]): Non-Toxic; Activity [14]: 0.012; Activity [30]: 0.0146; Activity [15]: Active; Activity [21]: Non-Toxic; Activity [28]: Non-Toxic
5 | NC(=O)c1cc2c(n1Cc1ccccc1)-c1nc(NC3CCCCC3)ncc1CCC2 | > 270 | > 100000 | 220 | 180 | > 463 | > 100000 | 370 | > 100000 | > 569 | 
6 | Cn1c(C(N)=O)cc2c1-c1nc(NC3CCCCC3)ncc1CCC2 | > 67 | > 100000 | 820 | 1850 | > 121 | 75200 | 1500 | > 100000 | 41 | 
7 | CCOC(=O)c1cc2c(n1Cc1ccc(OC)cc1)-c1nc(Nc3ccccc3)ncc1CCC2 | > 1470 | > 100000 | 180 | 860 | > 559 | > 100000 | 70 | > 100000 | > 117 | 
